# Starred links: 1 amine or outer side, 2 acyl side, 3 side chain; linkers in the order of their positions; H or OH if unused. Positions of bridges follow the written chain, without caps; N, C: chain ends. Non-standard residues stand in square brackets, D forms with d. Residues, ends and D or L forms follow the SMILES beside them. Phe(3-(4R-CO-2-thiazolinyl)) = O=C([C@H](Cc1cccc(C2=N[C@H](C(=O)[*:3])CS2)c1)N[*:1])[*:2]; dCha = N[C@H](CC1CCCCC1)C(=O)O; Nle = CCCC[C@H](N)C(=O)O
# Assay: Membrane permeability of synthesized cyclic peptides by PAMPA (Measurement Method A: 1 μmol/L; Method B: 10 μmol/L)
# Format: in vitro ADME
# Details: Measurement method A, 25° C., 4 hours
# Procedure: Evaluation of membrane permeability of synthesized cyclic peptide by PAMPA method In order to compare and examine the membrane permeability of the synthesized cyclic peptide, parallel artificial membrane permeability assay (PAMPA) was carried out.
# An artificial phospholipid membrane was produced by adding 5 μL of a phospholipid organic solvent solution consisting of L-α-phosphatidylcholine (Avanti Polar Lipids, Inc., Cat. 840051P, 1.67%), 1,2-dioleoyl-sn-glycero-3-phospho-L-serine (Avanti Polar Lipids, Inc., Cat. 840035P, 0.33%), and n-dodecane special grade (Wako Pure Chemical Industries, Ltd., 047-21612)/1-octanol reagent special grade (Kanto Chemical Co., Inc., Cat. 31013-08)=10:1 to Filter Plate (Merck Millipore Corporation, Cat. MAIPN4550).
# 475 μL of 50 mmol/L potassium phosphate buffer (KPB, pH 7.4 or pH 6.5) was added to 25 μL of a DMSO solution containing the compound at a concentration of 20 μmol/L, so that the compound was diluted to a final concentration of 1 μmol/L. 300 μL of the compound solution was added to the lower side (donor side) of PAMPA 96-well plate (Filter Plate (Merck Millipore Corporation, Cat. MAIPN4550)) with an artificial phospholipid membrane being interposed therebetween. 200 μL of 5% DMSO KPB (pH 7.4) was added to the upper side (acceptor side) with the artificial phospholipid membrane being interposed therebetween. A permeation test through an artificial phospholipid membrane was carried out at 25° C. for 4 hours. The compound concentration in the solution in the donor plate and the acceptor plate was measured by LC/MS/MS, and the membrane permeation rate (Pe) of the compound was calculated from the following formula, assuming that C0 is an initial compound concentration in donor solution, t is a test time, A is a membrane filter area=0.3 cm^2, VD is a donor solution amount=300 μL, VA is an acceptor solution amount=200 μL, and CD(t) is a compound concentration in donor solution at time t, CA(t) is a compound concentration in acceptor solution at time t, and Cequilibrium=[CD(t)*VD+CA(t)*VA]/(VD+VA).
# 475 μL of 50 mmol/L potassium phosphate buffer (KPB, pH 7.4 or pH 6.5) was added to 25 μL of a DMSO solution containing the compound at a concentration of […], so that the compound was diluted to a final concentration of 10 μmol/L. The compound solution was added 300 μL each to the lower side (donor side) of an artificial phospholipid membrane of PAMPA 96-well plate (Filter Plate (Merck Millipore Corporation, Cat. MAIPN4550)). 200 μL of 5% DMSO KPB (pH 7.4) was added to the upper side (acceptor side) with the artificial phospholipid membrane being interposed therebetween. A permeation test through an artificial phospholipid membrane was carried out at 25° C. for 4 hours. The compound concentration in the solution in the donor plate and the acceptor plate was measured by LC/MS/MS, and the membrane permeation rate (Pe) of the compound was calculated from the following formula, assuming that Co is an initial compound concentration in donor solution, t is a test time, A is a membrane filter area=0.3 cm^2, VD is a donor solution amount=300 μL, VA is an acceptor solution amount=200 μL, and CD(t) is a compound concentration in donor solution at time t, CA(t) is a compound concentration in acceptor solution at time t, and Cequilibrium=[CD(t)*VD+CA(t)*VA]/(VD+VA).
# The membrane permeability (Pe(10^−6 cm/s)) obtained by this method is described in the following table.
# Evaluation standards are as follows.
row,Compound,Pe(10^−6 cm/sec)
1,N=C(N)NCCC[C@@H]1NC(=O)[C@H](Cc2c[nH]c3ccccc23)NC(=O)[C@@H](CC2CCCCC2)NC(=O)[C@@H]2CCCN2C(=O)[C@@H]2CSC(=N2)C2=Cc3ccc(cc3S2)C[C@@H](C(N)=O)NC1=O [2-2],+++ (0.5<Pe (10^−6 cm/s))
2,N=C(N)NCCC[C@@H]1NC(=O)[C@H](Cc2c[nH]c3ccccc23)NC(=O)[C@@H](CC2CCCCC2)NC(=O)[C@@H]2CCCN2C(=O)[C@@H]2CSC(=N2)c2cnc3cc(ccc3c2)C[C@@H](C(N)=O)NC1=O [2-4],+++ (0.5<Pe (10^−6 cm/s))
3,N=C(N)NCCC[C@@H]1NC(=O)[C@H](Cc2c[nH]c3ccccc23)NC(=O)[C@@H](CC2CCCCC2)NC(=O)[C@@H]2CCCN2C(=O)[C@@H]2CSC(=N2)c2sccc2C[C@@H](C(N)=O)NC1=O [2-17],+++ (0.5<Pe (10^−6 cm/s))
4,N=C(N)NCCC[C@@H]1NC(=O)[C@H](Cc2c[nH]c3ccccc23)NC(=O)[C@@H](CC2CCCCC2)NC(=O)[C@@H]2CCCN2C(=O)[C@@H]2CSC(=N2)c2ccc(cn2)C[C@@H](C(N)=O)NC1=O [3-1],+++ (0.5<Pe (10^−6 cm/s))
5,N=C(N)NCCC[C@@H]1NC(=O)[C@H](Cc2c[nH]c3ccccc23)NC(=O)[C@@H](CC2CCCCC2)NC(=O)[C@@H]2CCCN2C(=O)[C@@H]2CSC(=N2)C[C@@H](C(N)=O)NC1=O [3-5],++ (0.2<Pe (10^−6 cm/s)≤0.5)
6,NC(=O)[C@@H]1Cc2csc(c2)C2=N[C@@H](CCS2)C(=O)N[C@H](Cc2ccc(O)cc2)C(=O)NCC(=O)NCC(=O)N[C@H](Cc2ccccc2)C(=O)N1 [4-2],+++ (0.5<Pe (10^−6 cm/s))
7,NC(=O)[C@@H]1Cc2csc(c2)C2=N[C@@H](CS2)C(=O)N[C@H](Cc2ccc(O)cc2)C(=O)NCC(=O)NCC(=O)N[C@H](Cc2ccccc2)C(=O)N1 [4-3],+++ (0.5<Pe (10^−6 cm/s))
8,CC(C)C[C@@H]1NC(=O)[C@@H](C(C)C)NC(=O)[C@@H]2CSC(=N2)c2cc(cs2)C[C@@H](C(N)=O)NC(=O)[C@@H](CCC(=O)O)NC(=O)[C@@H](Cc2c[nH]c3ccccc23)NC1=O [4-4],++ (0.2<Pe (10^−6 cm/s)≤0.5)
9,C[C@@H](O)[C@@H]1NC(=O)[C@H](CCCCN)NC(=O)[C@@H](Cc2c[nH]c3ccccc23)NC(=O)[C@H](Cc2ccccc2)NC(=O)[C@@H]2CSC(=N2)c2cc(cs2)C[C@@H](C(N)=O)NC1=O [4-6],+ (0.01<Pe (10^−6 cm/s)≤0.2)
10,CCCC[C@@H]1NC(=O)[C@H](CCCCN)NC(=O)C(CC(C)C)NC(=O)[C@H](CC(C)C)NC(=O)[C@@H]2CSC(=N2)c2cc(cs2)C[C@@H](C(N)=O)NC(=O)C(Cc2ccccc2)NC(=O)[C@H](C)NC(=O)[C@H](C)NC(=O)[C@@H]2CCCN2C1=O (some centres unmarked) [4-8],++ (0.2<Pe (10^−6 cm/s)≤0.5)
11,CCCC[C@@H]1NC(=O)[C@H](CCCCN)NC(=O)C(CC(C)C)NC(=O)[C@H](CC(C)C)NC(=O)[C@@H]2CSC(=N2)c2cc(cs2)C[C@@H](C(N)=O)NC(=O)C(Cc2ccccc2)NC(=O)[C@H](CO)NC(=O)[C@H](C)NC(=O)[C@@H]2CCCN2C1=O (some centres unmarked) [4-9],+ (0.01<Pe (10^−6 cm/s)≤0.2)
12,CC(C)C[C@@H]1NC(=O)[C@@H](C(C)C)NC(=O)[C@@H]2CSC(=N2)c2cccc(c2)C[C@@H](C(N)=O)NC(=O)[C@@H](CCC(=O)O)NC(=O)[C@@H](Cc2c[nH]c3ccccc23)NC1=O [5-1] ([dV]L[dW][dE][Phe(3-(4R-CO-2-thiazolinyl))]-NH2; lactam N-5),+++ (0.5<Pe (10^−6 cm/s))
13,C[C@@H]1NC(=O)CSC[C@@H](C(N)=O)NC(=O)[C@@H](Cc2ccccc2)NC(=O)CNC(=O)CNC(=O)[C@@H](Cc2ccc(O)cc2)NC1=O [7-2] ({CH2CO}-A[dY]GG[dF]C-NH2; thioether N-6),+ (0.01<Pe (10^−6 cm/s)≤0.2)
14,C[C@@H]1NC(=O)CSC[C@@H](C(N)=O)NC(=O)[C@H]([C@@H](C)O)NC(=O)[C@H](CCCCN)NC(=O)[C@@H](Cc2c[nH]c3ccccc23)NC(=O)[C@H](Cc2ccccc2)NC1=O [7-3] ({CH2CO}-AF[dW]KTC-NH2; thioether N-6),− (0.01≤Pe (10^−6 cm/s))
15,CC(C)C[C@@H]1NC(=O)[C@@H](C(C)C)NC(=O)[C@H](C)NC(=O)CSC[C@@H](C(N)=O)NC(=O)[C@@H](CCC(=O)O)NC(=O)[C@@H](Cc2c[nH]c3ccccc23)NC1=O [7-4] ({CH2CO}-A[dV]L[dW][dE]C-NH2; thioether N-6),+ (0.01<Pe (10^−6 cm/s)≤0.2)
16,CCCC[C@@H]1NC(=O)[C@H](CCCCN)NC(=O)[C@H](CC(C)C)NC(=O)[C@H](CC(C)C)NC(=O)[C@H](C)NC(=O)CSC[C@@H](C(N)=O)NC(=O)[C@H](Cc2ccccc2)NC(=O)[C@H](C)NC(=O)[C@H](C)NC(=O)[C@@H]2CCCN2C1=O [7-5] ({CH2CO}-ALLK[Nle]PAAFC-NH2; thioether N-10),Below the limit
17,CCCC[C@@H]1NC(=O)[C@H](CCCCN)NC(=O)[C@H](CC(C)C)NC(=O)[C@H](CC(C)C)NC(=O)[C@H](C)NC(=O)CSC[C@@H](C(N)=O)NC(=O)[C@H](Cc2ccccc2)NC(=O)[C@H](CO)NC(=O)[C@H](C)NC(=O)[C@@H]2CCCN2C1=O [7-6] ({CH2CO}-ALLK[Nle]PASFC-NH2; thioether N-10),Below the limit
18,C[C@@H]1NC(=O)CC[C@@H](C(N)=O)NC(=O)[C@@H](Cc2ccccc2)NC(=O)CNC(=O)CNC(=O)[C@@H](Cc2ccc(O)cc2)NC1=O [8-2] (A[dY]GG[dF]E-NH2; lactam N-6),+ (0.01<Pe (10^−6 cm/s)≤0.2)

# Second part, the compound after the results:
row,Pe(10^−6 cm/sec),Compound
1,+ (0.01<Pe (10^−6 cm/s)≤0.2),C[C@@H]1NC(=O)CC[C@@H](C(N)=O)NC(=O)[C@H](CCCNC(=N)N)NC(=O)[C@H](Cc2c[nH]c3ccccc23)NC(=O)[C@@H](CC2CCCCC2)NC(=O)[C@@H]2CCCN2C1=O [8-1] (AP[dCha]WRE-NH2; lactam N-6)
2,− (0.01≤Pe (10^−6 cm/s)),CC(C)C[C@@H]1NC(=O)[C@@H](C(C)C)NC(=O)[C@H](C)NC(=O)CC[C@@H](C(N)=O)NC(=O)[C@@H](CCC(=O)O)NC(=O)[C@@H](Cc2c[nH]c3ccccc23)NC1=O [8-3] (A[dV]L[dW][dE]E-NH2; lactam N-6)
3,+ (0.01<Pe (10^−6 cm/s)≤0.2),CC(=O)N[C@H]1CSSC[C@@H](C(N)=O)NC(=O)[C@@H](CCC(=O)O)NC(=O)[C@@H](Cc2c[nH]c3ccccc23)NC(=O)[C@H](CC(C)C)NC(=O)[C@@H](C(C)C)NC1=O [9-2] (Ac-C[dV]L[dW][dE]C-NH2; disulfide 1-6)
4,Below the limit,CC(=O)N[C@H]1CSSC[C@@H](C(N)=O)NC(=O)[C@H]([C@@H](C)O)NC(=O)[C@H](CCCCN)NC(=O)[C@@H](Cc2c[nH]c3ccccc23)NC(=O)[C@H](Cc2ccccc2)NC1=O [9-3] (Ac-CF[dW]KTC-NH2; disulfide 1-6)
5,Below the limit,CCCC[C@@H]1NC(=O)[C@H](CCCCN)NC(=O)[C@H](CC(C)C)NC(=O)[C@H](CC(C)C)NC(=O)[C@@H](NC(C)=O)CSSC[C@@H](C(N)=O)NC(=O)[C@H](Cc2ccccc2)NC(=O)[C@H](C)NC(=O)[C@H](C)NC(=O)[C@@H]2CCCN2C1=O [9-4] (Ac-CLLK[Nle]PAAFC-NH2; disulfide 1-10)
6,+ (0.01<Pe (10^−6 cm/s)≤0.2),C[C@@H]1NC(=O)Cn2cc(nn2)C[C@@H](C(N)=O)NC(=O)[C@H](CCCNC(=N)N)NC(=O)[C@H](Cc2c[nH]c3ccccc23)NC(=O)[C@@H](CC2CCCCC2)NC(=O)[C@@H]2CCCN2C1=O [10-1]
7,− (0.01≤Pe (10^−6 cm/s)),CC(C)C[C@@H]1NC(=O)[C@@H](C(C)C)NC(=O)[C@H](C)NC(=O)Cn2cc(nn2)C[C@@H](C(N)=O)NC(=O)[C@@H](CCC(=O)O)NC(=O)[C@@H](Cc2c[nH]c3ccccc23)NC1=O [10-3]
8,− (0.01≤Pe (10^−6 cm/s)),C[C@@H]1NC(=O)Cn2cc(nn2)C[C@@H](C(N)=O)NC(=O)[C@H]([C@@H](C)O)NC(=O)[C@H](CCCCN)NC(=O)[C@@H](Cc2c[nH]c3ccccc23)NC(=O)[C@H](Cc2ccccc2)NC1=O [10-4]
